Experimental data: patent US11040028B2, “Penicinotam derivative, preparation method and use thereof” (OCEAN UNIVERSITY OF CHINA, priority 2017, dated 2021)

Tests used:
Format in all cases: cell-based
BHK-21 cells = assay: Anti-fibrosis activity test: inhibition of BHK-21 cell proliferation (CCK-8); details: Mesocricetus auratus, BHK-21, 48 h
Procedure, shortened: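 Each concentration was tested in triplicate on adhered BHK-21 cells for 48 h, with pirfenidone as reference. A 2 h CCK-8 incubation preceded absorbance reading at 450 nm, and IC50 was obtained from percent inhibition versus blank.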

[1] = test system: human lung fibroblasts HFL1; assay: Anti-fibrosis activity test: inhibition of proliferation of human lung fibroblasts HFL1 (CCK-8); details: Homo sapiens, HFL1, 48 h
Procedure, shortened: (§1)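 Cells were seeded at 2×10^4 cells/mL and allowed to adhere for 24 h at 37° C, 5% CO2, then exposed to graded compound concentrations in triplicate for 48 h. CCK-8 was added for 2 h, A450 was read, and IC50 was derived from inhibition rate = (1−Ai/Ao)×100%.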

[2] = test system: human embryonic lung fibroblast IMR-90; assay: Anti-fibrosis activity test: inhibition of proliferation of human embryonic lung fibroblast IMR-90 (CCK-8)
Procedure, shortened: as §1

NF-κB = assay: Immunological activity test: inhibition of NF-κB activity; details: initial concentration of 30 μM; a/b isomers given as first/second symbol; read-out: IC50 (μM), inhibitory activity against NF-κB
Procedure, shortened: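 Single-point testing at 30 μM preceded IC50 determination.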

[3] = test system: human dermal fibroblasts CCC-ESF-1; assay: Anti-fibrosis activity test: inhibition of proliferation of human dermal fibroblasts CCC-ESF-1 (CCK-8); details: Fibroblast
Procedure, shortened: as §1

[4] = test system: mouse macrophages (RAW264.7); assay: Lipopolysaccharide-induced NO secretion in macrophages (Griess); details: Mus musculus, RAW264.7, 24 h, RAW264.7, LPS 1 μg/ml, a/b isomers given as first/second symbol, read-out: IC50 (μM), inhibition of lipopolysaccharide-induced NO secretion in macrophages
Procedure, shortened: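 RAW264.7 cells in DMEM with 10% FBS were treated with test compounds at several concentrations, then stimulated with LPS (1 μg/ml) for 24 hours. Nitrite in the supernatant was measured by Griess reaction at 548 nm, and percent inhibition was calculated against blank-medium controls.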

[5] = test system: human fibrosarcoma cells HT-1080; assay: Anti-fibrosis activity test: inhibition of proliferation of human fibrosarcoma cells HT-1080 (CCK-8); details: Homo sapiens, HT-1080, 48 h
Procedure, shortened: as §1

[6] = test system: human hepatic stellate cells LX-2; assay: Anti-fibrosis activity test: inhibition of proliferation of human hepatic stellate cells LX-2 (CCK-8); details: Homo sapiens, 48 h
Procedure, shortened: as §1

[7] = test system: cardiac fibroblast RAT-iCell-C002; assay: Anti-fibrosis activity test: inhibition of proliferation of cardiac fibroblast RAT-iCell-C002 (CCK-8); details: Cardiac fibroblast, 48 h
Procedure, shortened: as §1

[8] = CCK-8, 48 hours after administration
[9] = human lung fibroblasts HFL1, CCK-8, 48 hours
[10] = human embryonic lung fibroblast IMR-90, CCK-8, 48 hours
[11] = human dermal fibroblasts CCC-ESF-1, CCK-8, 48 hours
[12] = human fibrosarcoma cells HT-1080, CCK-8, 48 hours
[13] = human hepatic stellate cells LX-2, CCK-8, 48 hours
[14] = cardiac fibroblast RAT-iCell-C002, CCK-8, 48 hours
[15] = Homo sapiens, IMR-90 cells, 48 h, CCK-8
[16] = Homo sapiens, CCC-ESF-1 cells, 48 h, CCK-8

Row | Structure (SMILES) | IC50 (NF-κB) [µM] | IC50 [4] [µM] | IC50 [5, 12] [mM] | IC50 ([5]; HT-1080 cells, 48 h, CCK-8) [mM] | IC50 (BHK-21 cells; [8]) [mM] | IC50 [1, 9] [mM] | IC50 [2, 10] [mM] | IC50 [3, 11] [mM] | IC50 [6, 13] [mM] | IC50 [7, 14] [mM] | IC50 (BHK-21 cells; 48 h, CCK-8) [mM] | IC50 ([1]; HFL1 cells, 48 h, CCK-8) [mM] | IC50 [2, 15] [mM] | IC50 [3, 16] [mM] | IC50 ([6]; LX-2, 48 h, LX-2 cells, CCK-8) [mM] | IC50 ([7]; RAT-iCell-C002 cells, CCK-8) [mM]
1 | N#Cc1cccc(Cn2c3c(c(=O)c4ccccc42)C(=O)n2cccc2-3)c1 [Compound 597a, 3-((9,10-Dioxo-9H-pyrrolizino[1,2-b]quinolin-4(10H)-yl)methyl)benzonitrile] | 1 to 10 | 1 to 10 | 0.05 to 5 | – | 0.05 to 5 | 0.05 to 5 | 0.05 to 5 | 0.05 to 5 | 0.05 to 5 | 0.05 to 5 | – | – | – | – | – | –
2 | N#Cc1cccc(COc2c3c(nc4ccccc24)-c2cccn2C3=O)c1 [Compound 597b, 3-(((10-oxo-10H-pyrrolizino[1,2-b]quinolin-9-yl)oxy)methyl)benzonitrile] | 1 to 10 | 1 to 10 | 0.05 to 5 | – | 0.05 to 5 | 0.05 to 5 | 0.05 to 5 | 0.05 to 5 | 0.05 to 5 | 0.05 to 5 | – | – | – | – | – | –
3 | O=C1c2c([nH]c3cc(OC(F)(F)F)ccc3c2=O)-c2cccn21 [Compound 548a, 6-(Trifluoromethoxy)-9H-pyrrolizino[1,2-b]quinoline-9,10(4H)-dione] | 0.1 to 1 | 10 to 50 | 0.05 to 5 | – | 0.05 to 5 | 0.05 to 5 | 0.05 to 5 | 0.05 to 5 | < 0.05 | 0.05 to 5 | – | – | – | – | – | –
4 | O=C1c2c(n(C(=O)c3ccco3)c3ccccc3c2=O)-c2cccn21 [Compound 95a, 4-(Furan-2-carbonyl)-9H-pyrrolizino[1,2-b]quinoline-9,10(4H)-dione] | 1 to 10 | 1 to 10 | < 0.05 | – | 0.05 to 5 | 0.05 to 5 | < 0.05 | 0.05 to 5 | < 0.05 | 0.05 to 5 | – | – | – | – | – | –
5 | O=C(COc1c2c(nc3ccccc13)-c1cccn1C2=O)c1ccc(Cl)cc1 [Compound 90b, 9-(2-(4-chlorophenyl)-2-oxoethoxy)-10H-pyrrolizino[1,2-b]quinolin-10-one] | 1 to 10 | 0.1 to 1 | 5 to 20 | – | 0.05 to 5 | 0.05 to 5 | 0.05 to 5 | 0.05 to 5 | 0.05 to 5 | 0.05 to 5 | – | – | – | – | – | –
6 | O=C1c2c(nc3ccc(C(F)(F)F)cc3c2O)-c2cccn21 [Compound 282b, 9-hydroxy-7-(trifluoromethyl)-10H-pyrrolizino[1,2-b]quinolin-10-one] | 1 to 10 | 10 to 50 | 0.05 to 5 | – | 0.05 to 5 | 0.05 to 5 | 0.05 to 5 | 0.05 to 5 | 0.05 to 5 | 0.05 to 5 | – | – | – | – | – | –
7 | O=C1c2c(nc3ccccc3c2OCc2cc(F)c(F)cc2F)-c2cccn21 [Compound 585b, 9-((2,4,5-trifluorobenzyl)oxy)-10H-pyrrolizino[1,2-b]quinolin-10-one] | 1 to 10 | 1 to 10 | 0.05 to 5 | – | 0.05 to 5 | 0.05 to 5 | 0.05 to 5 | 0.05 to 5 | 0.05 to 5 | 0.05 to 5 | – | – | – | – | – | –
8 | O=C1c2c(nc3ccccc3c2OCc2cccc([N+](=O)[O-])c2)-c2cccn21 [Compound 583b, 9-((3-nitrobenzyl)oxy)-10H-pyrrolizino[1,2-b]quinolin-10-one] | 1 to 10 | 1 to 10 | 0.05 to 5 | – | 0.05 to 5 | 0.05 to 5 | 0.05 to 5 | 0.05 to 5 | 0.05 to 5 | 0.05 to 5 | – | – | – | – | – | –
9 | C=CCn1c2c(c(=O)c3ccccc31)C(=O)n1cccc1-2 [Compound 6a, 4-Allyl-9H-pyrrolizino[1,2-b]quinoline-9,10(4H)-dione] | 1 to 10 | 1 to 10 | < 0.05 | – | 0.05 to 5 | 0.05 to 5 | 0.05 to 5 | 0.05 to 5 | 0.05 to 5 | 0.05 to 5 | – | – | – | – | – | –
10 | O=C1c2c([nH]c3ccc(OC(F)(F)F)cc3c2=O)-c2cccn21 [Compound 306a, 7-(Trifluoromethoxy)-9H-pyrrolizino[1,2-b]quinoline-9,10(4H)-dione] | 1 to 10 | 1 to 10 | 0.05 to 5 | – | 0.05 to 5 | 0.05 to 5 | 0.05 to 5 | 0.05 to 5 | 0.05 to 5 | 0.05 to 5 | – | – | – | – | – | –
11 | Cc1ccccc1COc1c2c(nc3ccccc13)-c1cccn1C2=O [Compound 574b, 9-((2-methylbenzyl)oxy)-10H-pyrrolizino[1,2-b]quinolin-10-one] | 1 to 10 | 10 to 50 | 0.05 to 5 | – | 0.05 to 5 | 0.05 to 5 | 0.05 to 5 | 0.05 to 5 | 0.05 to 5 | 0.05 to 5 | – | – | – | – | – | –
12 | O=C(Cn1c2c(c(=O)c3ccccc31)C(=O)n1cccc1-2)c1ccc(-c2ccccc2)cc1 [Compound 50a, 4-(2-([1,1′-Biphenyl]-4-yl)-2-oxoethyl)-9H-pyrrolizino[1,2-b]quinoline-9,10(4H)-dione] | 1 to 10 | 1 to 10 | 0.05 to 5 | – | 0.05 to 5 | 0.05 to 5 | 5 to 20 | 0.05 to 5 | 5 to 20 | 5 to 20 | – | – | – | – | – | –

Now from value to molecule, other results behind:

Row | IC50 (NF-κB) [µM] | IC50 [4] [µM] | IC50 [5, 12] [mM] | IC50 ([5]; HT-1080 cells, 48 h, CCK-8) [mM] | Structure (SMILES) | IC50 (BHK-21 cells; [8]) [mM] | IC50 [1, 9] [mM] | IC50 [2, 10] [mM] | IC50 [3, 11] [mM] | IC50 [6, 13] [mM] | IC50 [7, 14] [mM] | IC50 (BHK-21 cells; 48 h, CCK-8) [mM] | IC50 ([1]; HFL1 cells, 48 h, CCK-8) [mM] | IC50 [2, 15] [mM] | IC50 [3, 16] [mM] | IC50 ([6]; LX-2, 48 h, LX-2 cells, CCK-8) [mM] | IC50 ([7]; RAT-iCell-C002 cells, CCK-8) [mM]
13 | 1 to 10 | 1 to 10 | 0.05 to 5 | – | CS(=O)(=O)Oc1c2c(nc3ccccc13)-c1cccn1C2=O [Compound 650b, 10-oxo-10H-pyrrolizino[1,2-b]quinolin-9-yl methanesulfonate] | 0.05 to 5 | 0.05 to 5 | 0.05 to 5 | 0.05 to 5 | 0.05 to 5 | 0.05 to 5 | – | – | – | – | – | –
14 | 0.1 to 1 | 1 to 10 | – | 0.05 to 5 | O=C1c2c(n(Cc3ccccc3[N+](=O)[O-])c3ccccc3c2=O)-c2cccn21 [Compound 668a, 4-(2-Nitrobenzyl)-9H-pyrrolizino[1,2-b]quinoline-9,10(4H)-dione] | – | – | – | – | – | – | 0.05 to 5 | 0.05 to 5 | 0.05 to 5 | 0.05 to 5 | 0.05 to 5 | 0.05 to 5
15 | 1 to 10 | 0.1 to 1 | 0.05 to 5 | – | O=C1c2c(n(CCCN3CCOCC3)c3ccccc3c2=O)-c2cccn21 [Compound 663a, 4-(3-Morpholinopropyl)-9H-pyrrolizino[1,2-b]quinoline-9,10(4H)-dione] | < 0.05 | 0.05 to 5 | 0.05 to 5 | 0.05 to 5 | 0.05 to 5 | 0.05 to 5 | – | – | – | – | – | –
16 | 1 to 10 | 1 to 10 | – | 0.05 to 5 | Cc1cccc2c(O)c3c(nc12)-c1cccn1C3=O [Compound 732b, 9-hydroxy-5-methyl-10H-pyrrolizino[1,2-b]quinolin-10-one] | – | – | – | – | – | – | 0.05 to 5 | 0.05 to 5 | 0.05 to 5 | 0.05 to 5 | 0.05 to 5 | 0.05 to 5
17 | 1 to 10 | 10 to 50 | 0.05 to 5 | – | O=C1c2c(nc3ccccc3c2OCc2cc(C(F)(F)F)ccc2Cl)-c2cccn21 [Compound 611b, 9-((2-chloro-5-(trifluoromethyl)benzyl)oxy)-10H-pyrrolizino[1,2-b]quinolin-10-one] | 0.05 to 5 | 0.05 to 5 | 0.05 to 5 | 0.05 to 5 | 0.05 to 5 | 0.05 to 5 | – | – | – | – | – | –
18 | 0.1 to 1 | 1 to 10 | – | 0.05 to 5 | Cc1ccc(C)c2c(O)c3c(nc12)-c1cccn1C3=O [Compound 772b, 9-hydroxy-5,8-dimethyl-10H-pyrrolizino[1,2-b]quinolin-10-one] | – | – | – | – | – | – | 0.05 to 5 | 0.05 to 5 | 0.05 to 5 | 0.05 to 5 | 0.05 to 5 | 0.05 to 5
19 | 1 to 10 | 1 to 10 | – | 0.05 to 5 | O=C1c2c(nc3ccccc3c2OCc2ccccc2[N+](=O)[O-])-c2cccn21 [Compound 668b, 9-((2-nitrobenzyl)oxy)-10H-pyrrolizino[1,2-b]quinolin-10-one] | – | – | – | – | – | – | 0.05 to 5 | 0.05 to 5 | 0.05 to 5 | 0.05 to 5 | 0.05 to 5 | 0.05 to 5
